From patent US20230263822A1, “MODULATION OF FACTOR 11 EXPRESSION” (Ionis Pharmaceuticals, Inc., priority 2008, published 2023) come the findings set out here.

Strand notation (5' to 3'): a small letter for the sugar, then the base; units joined by * are phosphorothioate-linked, units joined directly phosphodiester-linked; [ ] holds rarer units or linkages, { } end groups; capitals alone tell only the bases. e = 2'-O-(2-methoxyethyl) (MOE); [5mC] = 5-methylcytosine; d = 2'-deoxy (DNA)

Data set [1] has as its system human Factor 11 mRNA. The data set is described as follows: Dose-dependent inhibition of human Factor 11 in HepG2 cells, electroporation 123.46-10,000 nM (Example 31). In kind it is cell-based. As to conditions: for Percent inhibition of Factor 11 mRNA at 123.47 nM / Percent inhibition of Factor 11 mRNA at 370.37 nM / IC50: electroporation; for Percent inhibition of Factor 11 mRNA at 123.47 nM / Percent inhibition of Factor 11 mRNA at 370.37 nM / Percent inhibition of Factor 11 mRNA at 1,111.11 nM / Percent inhibition of Factor 11 mRNA at 3,333.33 nM / Percent inhibition of Factor 11 mRNA at 10,000.0 nM: approx. 16 hours, relative to untreated control cells; for Percent inhibition of Factor 11 mRNA at 1,111.11 nM: electroporation, 1,111.11 nM; for Percent inhibition of Factor 11 mRNA at 3,333.33 nM: electroporation, 3,333.33 nM; for Percent inhibition of Factor 11 mRNA at 10,000.0 nM: electroporation, 10,000.0 nM; for IC50: Factor 11 mRNA expression. The method, boiled down: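 HepG2 cells were electroporated with antisense oligonucleotide at 123.46, 370.37, 1,111.11, 3,333.33 and 10,000 nM and harvested about 16 hours later. Factor 11 mRNA was quantified by qRT-PCR and normalised to total RNA (RIBOGREEN). Inhibition is expressed relative to untreated cells.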

Data set [2] deals with Factor 11 protein. Kind of data set: Factor 11 protein in monkey plasma by sandwich ELISA (Example 45). The format is in vivo, cynomolgus monkeys. As to conditions: escalating dose regimen; for Inhibition of Factor 11 protein relative to the PBS control: plasma ELISA. As for the experimental part: Groups, each consisting of two male and three female monkeys, were injected subcutaneously with ISIS 416838, ISIS 416850, ISIS 416858, ISIS 416864, or ISIS 417002 in escalating doses. Antisense oligonucleotide was administered to the monkeys at 5 mg/kg three times per a week for week 1; 5 mg/kg twice per week for weeks 2 and 3; 10 mg/kg three times per week for week 4; 10 mg/kg twice per week for weeks 5 and 6; 25 mg/kg three times per week for week 7; and 25 mg/kg twice per week for weeks 8, 9, 10, 11, and 12. One control group, consisting of two male and three female monkeys, was injected subcutaneously with PBS according to the same dosing regimen. An additional experimental group, consisting of two male and three female monkeys, was injected subcutaneously with ISIS 416850 in a chronic, lower dose regimen. Antisense oligonucleotide was administered to the monkeys at 5 mg/kg three times per week for week 1; 5 mg/kg twice per week for week 2 and 3; 10 mg/kg three times per week for week 4; and 10 mg/kg twice per week for weeks 5 to 12. Body weights were measured weekly. Blood samples were collected 14 days and 5 days before the start of treatment and subsequently once per week for Factor 11 protein activity analysis in plasma, fibrinogen measurement, PT and aPTT measurements, bleeding times, and measurement of various hematologic factors. On day 85, the monkeys were euthanized by exsanguination while under deep anesthesia, and organs harvested for further analysis.
Plasma samples from all monkey groups taken on different days were analyzed by a sandwich-style ELISA assay (Affinity Biologicals Inc.) using an affinity-purified polyclonal anti-Factor 11 antibody as the capture antibody and a peroxidase-conjugated polyclonal anti-Factor 11 antibody as the detecting antibody. Monkey plasma was diluted 1:50 for the assay. Peroxidase activity was expressed by incubation with the substrate o-phenylenediamine. The color produced was quantified using a microplate reader at 490 nm and was considered to be proportional to the concentration of Factor 11 in the samples.
The results are presented in Table 115, expressed as percentage reduction relative to that of the PBS control.

One may read the IC50 as the concentration needed to halve the response being measured. As for “445522 (antisense eG*e[5mC]*eA*e[5mC]*eA*dG*dT*dT*dT*d[5mC]*dT*dG*dG*e[5mC]*eA*eG*eG*e[5mC]) [compound 445522]”, in data set [1], the “Percent inhibition of Factor 11 mRNA at 123.47 nM” value (“Percent inhibition … at 123.47 nM” for short) was found to be 0%, the “Percent inhibition of Factor 11 mRNA at 370.37 nM” value (“Percent inhibition … at 370.37 nM” below) amounted to 0%, the “Percent inhibition of Factor 11 mRNA at 1,111.11 nM” value (shortened to “Percent inhibition … at 1,111.11 nM”) is listed as 44% and the “Percent inhibition of Factor 11 mRNA at 3,333.33 nM” value (shortened to “Percent inhibition … at 3,333.33 nM”) is reported as 63%. For the same substance, in data set [1], the “Percent inhibition of Factor 11 mRNA at 10,000.0 nM” value (shortened to “Percent inhibition … at 10,000.0 nM”) came out at 74% and the IC50 was determined as 2900 nM.
As to “ISIS 416838: MOE gapmer, nucleobases 1018 to 1042 of SEQ ID NO: 1 (Table 6) (antisense GCAACCGGGATGATGAGTGC; MOE gapmer, wing and gap sizes not given here)”, the “Inhibition of Factor 11 protein relative to the PBS control” value in data set [2] (day 8) is on record as 3%; in data set [2] (day 15) it was 4%; in data set [2] (day 22), 5%; in data set [2] (day 29), 8%; in data set [2] (day 36), 11%; in data set [2] (day 43) it was 5%. The “Inhibition of Factor 11 protein relative to the PBS control” value in data set [2] (day 50) was found to be 8%; in data set [2] (day 57) it was 10%; in data set [2] (day 64) it was 11%; in data set [2] (day 71) it was 12%; in data set [2] (day 78), 10%; in data set [2] (day 85) it was 10%. For the same substance, the “Inhibition of Factor 11 protein relative to the PBS control” value in data set [2] (day −5) and in data set [2] (day −14) was 0% throughout.
On to “445531 (antisense eG*eG*e[5mC]*eA*eT*dT*dG*dG*dT*dG*d[5mC]*dA*d[5mC]*eA*eG*eT*eT*eT) [compound 445531]”, for which, in data set [1], the “Percent inhibition … at 123.47 nM” value is 8%, the “Percent inhibition … at 370.37 nM” value is on record as 16%, the “Percent inhibition … at 1,111.11 nM” value is reported as 52% and the “Percent inhibition … at 3,333.33 nM” value was determined as 61%. Moreover, in data set [1], the “Percent inhibition … at 10,000.0 nM” value is on record as 77% and the IC50 turned out to be 1800 nM.
For “416856 (antisense GGCATTGGTGCACAGTTTCT; 5-10-5 gapmer, further chemistry not given here) [compound 416856]”, in data set [1], the “Percent inhibition … at 123.47 nM” value worked out at 12%, the “Percent inhibition … at 370.37 nM” value was 23%, the “Percent inhibition … at 1,111.11 nM” value amounted to 35% and the “Percent inhibition … at 3,333.33 nM” value was determined as 59%. Besides, in data set [1], the “Percent inhibition … at 10,000.0 nM” value is 83% and the concentration for half-maximal inhibition (IC50) came to 1600 nM.
Take “416850 (antisense TGCACAGTTTCTGGCAGGCC; 5-10-5 gapmer, further chemistry not given here) [compound 416850]”: in data set [1], the “Percent inhibition … at 123.47 nM” value was 0%, the “Percent inhibition … at 370.37 nM” value was 12%, the “Percent inhibition … at 1,111.11 nM” value is on record as 36% and the “Percent inhibition … at 3,333.33 nM” value is given as 74%. Moreover, in data set [1], the “Percent inhibition … at 10,000.0 nM” value is recorded as 73% and the IC50 worked out at 2800 nM.
As to “416858 (antisense ACGGCATTGGTGCACAGTTT; 5-10-5 gapmer, further chemistry not given here) [compound 416858]”, in data set [1], the “Percent inhibition … at 123.47 nM” value is recorded as 0%, the “Percent inhibition … at 370.37 nM” value was 27%, the “Percent inhibition … at 1,111.11 nM” value is reported as 36% and the “Percent inhibition … at 3,333.33 nM” value worked out at 64%. Also, in data set [1], the “Percent inhibition … at 10,000.0 nM” value came out at 70% and inhibition was half-maximal at 2200 nM (IC50).
As to “ISIS 416858: MOE gapmer, nucleobases 1275 to 1318 of SEQ ID NO: 1 (Table 8) (antisense ACGGCATTGGTGCACAGTTT; MOE gapmer, wing and gap sizes not given here)”, in data set [2] (cynomolgus monkeys, ELISA), the “Factor 11 protein levels in plasma” value was “time-dependent decrease in protein levels”. In addition, the “Inhibition of Factor 11 protein relative to the PBS control” value in data set [2] (day 8) amounted to 6%; in data set [2] (day 15), 16%; in data set [2] (day 22) it was 23%; in data set [2] (day 29) it was 28%; in data set [2] (day 36), 35%; in data set [2] (day 43) it was 39%. Besides, the “Inhibition of Factor 11 protein relative to the PBS control” value amounted to 49% in data set [2] (day 50); 60% in data set [2] (day 57); 68% in data set [2] (day 64); 71% in data set [2] (day 71); 73% in data set [2] (day 78); 78% in data set [2] (day 85). In addition, the “Inhibition of Factor 11 protein relative to the PBS control” value in data set [2] (day −5) and in data set [2] (day −14) was 0% throughout.
As for “ISIS 417002: MOE gapmer, nucleobases 1275 to 1318 of SEQ ID NO: 1 (Table 8) (antisense GGTGCACAGTTTCTGGCAGG; MOE gapmer, wing and gap sizes not given here)”, the “Inhibition of Factor 11 protein relative to the PBS control” value in data set [2] (day 8) amounted to 0%; in data set [2] (day 15) it was 4%; in data set [2] (day 22), 2%; in data set [2] (day 29), 8%; in data set [2] (day 36) it was 8%; in data set [2] (day 43), 9%. Moreover, the “Inhibition of Factor 11 protein relative to the PBS control” value in data set [2] (day 50) was 13%; in data set [2] (day 57), 24%; in data set [2] (day 64) it was 26%; in data set [2] (day 71), 30%; in data set [2] (day 78) it was 22%; in data set [2] (day 85), 23%. The “Inhibition of Factor 11 protein relative to the PBS control” value in data set [2] (day −5) and in data set [2] (day −14) was 0% each time.
In the case of “ISIS 416864: MOE gapmer, nucleobases 1275 to 1318 of SEQ ID NO: 1 (Table 8) (antisense GGCAGCGGACGGCATTGGTG; MOE gapmer, wing and gap sizes not given here)”, the “Inhibition of Factor 11 protein relative to the PBS control” value turned out to be 7% in data set [2] (day 8); 9% in data set [2] (day 15); 7% in data set [2] (day 22); 10% in data set [2] (day 29); 9% in data set [2] (day 36); 9% in data set [2] (day 43). Also, the “Inhibition of Factor 11 protein relative to the PBS control” value worked out at 10% in data set [2] (day 50); 7% in data set [2] (day 57); 5% in data set [2] (day 64); 10% in data set [2] (day 71); 9% in data set [2] (day 78); 8% in data set [2] (day 85). Besides, the figures for the “Inhibition of Factor 11 protein relative to the PBS control” value in data set [2] (day −5) and in data set [2] (day −14) were 5% and 0%, respectively.
